Data taken from patent US20260130395A1, “Water Dispersible Botanical Compositions” (Aquila Black Limited, priority 2021, published 2026).

Assay: Stability of cannabinoid compounds and Vitamin E components in Beverage 2 (AB Red) by LCMSMS
Format: physicochemical

CCCc1cc(O)c2c(c1)OC(C)(C)[C@@H]1CCC(C)=C[C@@H]21 [THCV, delta-9-tetrahydrocannabivarin]
Stability of Plant-Derived Cannabinoid Compounds in AB Red (stored at 8° C., 0 days): 3.22 µg/mL | Stability of Plant-Derived Cannabinoid Compounds in AB Red (stored at 8° C., 1 days): 3.19 µg/mL | Stability of Plant-Derived Cannabinoid Compounds in AB Red (stored at 8° C., 2 days): 3.17 µg/mL | Stability of Plant-Derived Cannabinoid Compounds in AB Red (stored at 8° C., 3 days): 3.20 µg/mL | Stability of Plant-Derived Cannabinoid Compounds in AB Red (stored at 8° C., 5 days): 3.24 µg/mL | Stability of Plant-Derived Cannabinoid Compounds in AB Red (stored at 8° C., 8 days): 3.17 µg/mL | Stability of Plant-Derived Cannabinoid Compounds in AB Red (stored at 8° C., 9 days): 3.14 µg/mL | Stability of Plant-Derived Cannabinoid Compounds in AB Red (stored at 8° C., 10 days): 3.14 µg/mL | Stability of Plant-Derived Cannabinoid Compounds in AB Red (stored at 8° C., 11 days): 3.24 µg/mL | Stability of Plant-Derived Cannabinoid Compounds in AB Red (stored at 8° C., 12 days): 3.25 µg/mL | Stability of Plant-Derived Cannabinoid Compounds in AB Red (stored at 8° C., 15 days): 3.19 µg/mL | Stability of Plant-Derived Cannabinoid Compounds in AB Red (stored at 8° C., 16 days): 3.25 µg/mL | Stability of Plant-Derived Cannabinoid Compounds in AB Red (stored at 8° C., 17 days): 3.12 µg/mL | Stability of Plant-Derived Cannabinoid Compounds in AB Red (stored at 8° C., 18 days): 3.17 µg/mL | Stability of Plant-Derived Cannabinoid Compounds in AB Red (stored at 8° C., 19 days): 3.19 µg/mL | Stability of Plant-Derived Cannabinoid Compounds in AB Red (stored at 8° C., 22 days): 3.22 µg/mL | Stability of Plant-Derived Cannabinoid Compounds in AB Red (stored at 8° C., 23 days): 3.25 µg/mL | Stability of Plant-Derived Cannabinoid Compounds in AB Red (stored at 8° C., 24 days): 3.15 µg/mL | Stability of Plant-Derived Cannabinoid Compounds in AB Red (stored at 8° C., 25 days): 3.25 µg/mL | Stability of Plant-Derived Cannabinoid Compounds in AB Red (stored at 8° C., 26 days): 3.13 µg/mL | Stability of Plant-Derived Cannabinoid Compounds in AB Red (stored at 8° C., 29 days): 3.22 µg/mL | Stability of Plant-Derived Cannabinoid Compounds in AB Red (stored at 8° C., 30 days): 3.20 µg/mL | Stability of Plant-Derived Cannabinoid Compounds in AB Red (stored at 8° C., 60 days): 3.11 µg/mL | Stability of Plant-Derived Cannabinoid Compounds in AB Red (stored at 8° C., 90 days): 3.10 µg/mL | Stability of Plant-Derived Cannabinoid Compounds in AB Red (stored at 8° C., 120 days): 3.10 µg/mL | Stability of Plant-Derived Cannabinoid Compounds in AB Red (stored at 8° C., 150 days): 3.15 µg/mL | Stability of Plant-Derived Cannabinoid Compounds in AB Red (stored at 8° C., 180 days): 3.10 µg/mL | Stability of Plant-Derived Cannabinoid Compounds in AB Red (stored at 8° C., 210 days): 3.15 µg/mL | Stability of Plant-Derived Cannabinoid Compounds in AB Red (stored at 8° C., 240 days): 3.08 µg/mL | Stability of Plant-Derived Cannabinoid Compounds in AB Red (stored at 8° C., 270 days): 3.15 µg/mL | Stability of Plant-Derived Cannabinoid Compounds in AB Red (stored at 8° C., 300 days): 3.15 µg/mL | Stability of Plant-Derived Cannabinoid Compounds in AB Red (stored at 8° C., 330 days): 3.15 µg/mL | Stability of Plant-Derived Cannabinoid Compounds in AB Red (stored at 8° C., 360 days): 3.08 µg/mL | Stability of Plant-Derived Cannabinoid Compounds in AB Red (stored at 8° C., 390 days): 3.08 µg/mL | Stability of Plant-Derived Cannabinoid Compounds in AB Red (stored at 8° C., 420 days): 3.13 µg/mL | Stability of Plant-Derived Cannabinoid Compounds in AB Red (stored at 8° C., 450 days): 3.08 µg/mL | Stability of Plant-Derived Cannabinoid Compounds in AB Red (stored at 8° C., 480 days): 3.05 µg/mL | Stability of Plant-Derived Cannabinoid Compounds in AB Red (stored at 8° C., 510 days): 2.95 µg/mL | Stability of Plant-Derived Cannabinoid Compounds in AB Red (stored at 8° C., 540 days): 2.99 µg/mL | Stability of Plant-Derived Cannabinoid Compounds in AB Red (stored at 8° C., 570 days): 2.95 µg/mL | Stability of Plant-Derived Cannabinoid Compounds in AB Red (stored at 21-25° C., 0 days): 3.22 µg/mL | Stability of Plant-Derived Cannabinoid Compounds in AB Red (stored at 21-25° C., 1 days): 3.13 µg/mL | Stability of Plant-Derived Cannabinoid Compounds in AB Red (stored at 21-25° C., 2 days): 3.20 µg/mL | Stability of Plant-Derived Cannabinoid Compounds in AB Red (stored at 21-25° C., 3 days): 3.25 µg/mL | Stability of Plant-Derived Cannabinoid Compounds in AB Red (stored at 21-25° C., 5 days): 3.25 µg/mL | Stability of Plant-Derived Cannabinoid Compounds in AB Red (stored at 21-25° C., 8 days): 3.19 µg/mL | Stability of Plant-Derived Cannabinoid Compounds in AB Red (stored at 21-25° C., 9 days): 3.17 µg/mL | Stability of Plant-Derived Cannabinoid Compounds in AB Red (stored at 21-25° C., 10 days): 3.09 µg/mL | Stability of Plant-Derived Cannabinoid Compounds in AB Red (stored at 21-25° C., 11 days): 3.24 µg/mL | Stability of Plant-Derived Cannabinoid Compounds in AB Red (stored at 21-25° C., 12 days): 3.24 µg/mL | Stability of Plant-Derived Cannabinoid Compounds in AB Red (stored at 21-25° C., 15 days): 3.20 µg/mL | Stability of Plant-Derived Cannabinoid Compounds in AB Red (stored at 21-25° C., 16 days): 3.20 µg/mL | Stability of Plant-Derived Cannabinoid Compounds in AB Red (stored at 21-25° C., 17 days): 3.11 µg/mL | Stability of Plant-Derived Cannabinoid Compounds in AB Red (stored at 21-25° C., 18 days): 3.19 µg/mL | Stability of Plant-Derived Cannabinoid Compounds in AB Red (stored at 21-25° C., 19 days): 3.19 µg/mL | Stability of Plant-Derived Cannabinoid Compounds in AB Red (stored at 21-25° C., 22 days): 3.18 µg/mL | Stability of Plant-Derived Cannabinoid Compounds in AB Red (stored at 21-25° C., 23 days): 3.23 µg/mL | Stability of Plant-Derived Cannabinoid Compounds in AB Red (stored at 21-25° C., 24 days): 3.25 µg/mL | Stability of Plant-Derived Cannabinoid Compounds in AB Red (stored at 21-25° C., 25 days): 3.24 µg/mL | Stability of Plant-Derived Cannabinoid Compounds in AB Red (stored at 21-25° C., 26 days): 3.11 µg/mL | Stability of Plant-Derived Cannabinoid Compounds in AB Red (stored at 21-25° C., 29 days): 3.15 µg/mL | Stability of Plant-Derived Cannabinoid Compounds in AB Red (stored at 21-25° C., 30 days): 3.15 µg/mL | Stability of Plant-Derived Cannabinoid Compounds in AB Red (stored at 21-25° C., 60 days): 3.18 µg/mL | Stability of Plant-Derived Cannabinoid Compounds in AB Red (stored at 21-25° C., 90 days): 3.05 µg/mL | Stability of Plant-Derived Cannabinoid Compounds in AB Red (stored at 21-25° C., 120 days): 3.09 µg/mL | Stability of Plant-Derived Cannabinoid Compounds in AB Red (stored at 21-25° C., 150 days): 3.17 µg/mL | Stability of Plant-Derived Cannabinoid Compounds in AB Red (stored at 21-25° C., 180 days): 3.10 µg/mL | Stability of Plant-Derived Cannabinoid Compounds in AB Red (stored at 21-25° C., 210 days): 3.03 µg/mL | Stability of Plant-Derived Cannabinoid Compounds in AB Red (stored at 21-25° C., 240 days): 3.18 µg/mL | Stability of Plant-Derived Cannabinoid Compounds in AB Red (stored at 21-25° C., 270 days): 3.04 µg/mL | Stability of Plant-Derived Cannabinoid Compounds in AB Red (stored at 21-25° C., 300 days): 3.14 µg/mL | Stability of Plant-Derived Cannabinoid Compounds in AB Red (stored at 21-25° C., 330 days): 3.19 µg/mL | Stability of Plant-Derived Cannabinoid Compounds in AB Red (stored at 21-25° C., 360 days): 3.05 µg/mL | Stability of Plant-Derived Cannabinoid Compounds in AB Red (stored at 21-25° C., 390 days): 3.04 µg/mL | Stability of Plant-Derived Cannabinoid Compounds in AB Red (stored at 21-25° C., 420 days): 3.10 µg/mL | Stability of Plant-Derived Cannabinoid Compounds in AB Red (stored at 21-25° C., 450 days): 3.14 µg/mL | Stability of Plant-Derived Cannabinoid Compounds in AB Red (stored at 21-25° C., 480 days): 3.04 µg/mL | Stability of Plant-Derived Cannabinoid Compounds in AB Red (stored at 21-25° C., 510 days): 3.01 µg/mL | Stability of Plant-Derived Cannabinoid Compounds in AB Red (stored at 21-25° C., 540 days): 2.95 µg/mL | Stability of Plant-Derived Cannabinoid Compounds in AB Red (stored at 21-25° C., 570 days): 2.98 µg/mL
